Reference: US12115161B2, “Prophylactic and/or therapeutic agent for inflammatory diseases which contains pyrrolopyrimidine compound as active ingredient” (KEIO UNIVERSITY, priority 2018, dated 2024)

Experiments:
[1] = system: NZB/WF1 mice; experiment: Urine protein in NZB/WF1 mice (Example 8); assay type: in vivo
Procedure: Present Example was performed simultaneously with Example 7 using NZB/WF1 mice. Except for the following exceptions, present Example was performed by the same materials and method as Example 7 above.
The urine was collected over time (0 w, 4 w, 7 w, 12 w, 16 w, and 18 w) to evaluate the protein content […] in the urine using urine protein test strips. It is known that SLE patients are prone to develop lupus nephritis and a higher concentration of protein is contained in the urine of incident patients than the urine of normal healthy individuals.
The level of the protein content in the mouse urine was numerically expressed using Albustix (Ames urine protein test strips, produced by Siemens Healthcare K.K.) as urine protein test strips based on the following criteria. • negative: 0 • ±: 0.5 • +: 1 • 2+: 2 • 3+: 3

[2] = system: NZB/WF1 mice; experiment: Anti-dsDNA antibody titer in blood of NZB/WF1 mice (Example 7); assay type: in vivo
Procedure: NZB/WF1 mice (purchased from Japan SLC, Inc.) were used as disease model (may also be referred to as systemic lupus erythematosus (SLE) model) mice producing anti-dsDNA antibodies with age and spontaneously developing glomerulonephritis. Except for the following exceptions, present Example was performed by the same materials and method as Example 6 above.
Experiments were performed as follows: • Group 1: administered a physiological saline solution only (saline); • Group 2: administered 0.2 mg/kg of Compound A; • Group 3: administered 1 mg/kg of Compound A.
NZB/WF1 mice (female) of 20 weeks old were classified into the above three groups (five individuals per group) and predetermined administration was initiated (0 w) on the individuals in each group.
The administration was performed five times a week for 20 weeks by intravenous injection.

[3] = system: peripheral blood monocytes and B cells from Sjögren syndrome patients; experiment: IgG production in coculture of BAFF-stimulated peripheral blood monocytes and B cells (Example 4); assay type: cell-based, human
Procedure: Monocytes were isolated from Sjögren syndrome patient peripheral blood using CD14 microbeads, and B cells were isolated from the peripheral blood using CD19 microbeads. Using Transwell® culture plates, 2×10^5 monocytes per well were seeded in the upper plate and 1×10^5 B cells in the lower plate to be cultured in the presence of 2 μg/mL recombinant human BAFF (same as Example 2) and Compound A (1 μM and 10 μM) using a 10% FBS/RPMI 1640 culture medium in a 5% CO2 environment at 37° C. for four days (coculture of the peripheral blood monocytes and the B cells via a membrane). Four days later, the supernatant was removed and the culture supernatant was collected to determine the IgG content in the culture supernatant by ELISA. As controls, experiments in the case of not adding Compound A and the case of adding neither Compound A nor BAFF were also performed. Moreover, for comparison with the effects of Compound A, experiments using BIK-13 instead of Compound A were also performed.

[4] = system: peripheral blood mononuclear cells (PBMC); experiment: IgG production by B cell-stimulation culture using peripheral blood mononuclear cells (Example 5); assay type: cell-based, human
Procedure: Peripheral blood mononuclear cells were isolated from normal healthy human peripheral blood by density gradient centrifugation using Ficoll. In the presence of 5 μg/mL anti-human IgM antibody, 1 μg/mL anti-human CD40 antibody, 30 ng/mL recombinant human IL-21, 30 ng/mL recombinant human BAFF, and Compound A (0.4 μM, 2 μM, and 10 μM), 2×10^5 peripheral blood mononuclear cells were cultured using a 10% FBS/RPMI 1640 culture medium in a 5% CO2 environment at 37° C. for seven days. The cells were cultured in 96-well round-bottom culture plates in a scale of 200 μL per well. Seven days later, the supernatant was removed and the culture supernatant was collected to determine the IgG content in the culture supernatant by ELISA. As controls, experiments in the case of not adding Compound A and the case of adding neither Compound A nor BAFF were also performed. Moreover, for comparison with the effects of Compound A, experiments using BIK-13 instead of Compound A were also performed.

## Cc1c(C)n(Cc2ccccc2)c2ncnc(OC3CCN(CC(=O)NCC4CC4)CC3)c12 [Compound A, 2-[4-{(7-benzyl-5,6-dimethyl-7H-pyrrolo[2,3-d]pyrimidin-4-yl)oxy}piperidin-1-yl]-N(cyclopropylmethyl)acetamide]
[1]; 0.2 and 1 mg/kg, 12 w or later, urine protein test strips
  protein content in the urine compared with saline: tendency of decrease
[1]; 12th week (1 mg/kg) and 18th week (0.2 mg/kg and 1 mg/kg)
  inhibitory effect on the protein content in the urine compared with saline: significant (respectively, p<0.05) inhibitory effects
[2]; 1 mg/kg, 12th and 16th weeks
  anti-dsDNA antibody titer inhibitory effect compared with saline: significant (respectively, p<0.05) anti-dsDNA antibody titer inhibitory effects
[2]; 0.2 and 1 mg/kg, intravenous injection five times a week, 12 w or later
  anti-dsDNA antibody titers in the blood compared with saline: tendency of decrease
[3]; 1 μM and 10 μM with 2 μg/mL human BAFF, 4 days
  IgG antibody production inhibitory effect compared with the control (B+mono+BAFF): significant (p<0.01 or p<0.001) IgG antibody production inhibitory effects
[3]; 10 μM, compared with adding neither compound nor BAFF
  cancellation of the IgG antibody production enhancement by BAFF: completely cancelled and further the IgG antibody production was inhibited below the basal level
[3]; coculture system of Example 4
  inhibitory effect on IgG antibody production, times stronger than BIK-13: approximately 10 times
[4]; 0.4 μM, 2 μM and 10 μM, anti-IgM, anti-CD40, IL-21 and BAFF stimuli, 7 days
  IgG antibody production inhibitory effect compared with the control: significant (respectively, p<0.05, p<0.01, and p<0.001) IgG antibody production inhibitory effects
[4]; 10 μM, compared with adding none
  cancellation of the IgG antibody production enhancement by BAFF: almost completely cancelled
[4]; PBMC system of Example 5
  inhibitory effect on IgG antibody production, times stronger than BIK-13: approximately 25 times
